Values quoted from earlier work as cited in patent publication US20180008711A1, “TRIPLE ANTIBIOTIC CATIONIC OINTMENT” (priority 2015, published 2018).

What was measured:
[1] = tested on: Escherichia coli
[2] = tested on: Candida albicans (yeast)
[3] = tested on: vancomycin-resistant enterococci
[4] = tested on: Staphylococcus aureus (also the methicillin-resistant type, MRSA)
[5] = tested on: Aspergillus brasiliensis (mold)
[6] = tested on: Pseudomonas aeruginosa
[7] = tested on: Klebsiella pneumoniae (carbapenem-resistant enterobacteriaceae)
[8] = tested on: fungi
[9] = tested on: bacteria; conditions: very low concentrations

polyhexamethylenebiguanide [PHMB]
effective against Escherichia coli [1]: effective | effective against Candida albicans [2]: effective | effective against vancomycin-resistant enterococci [3]: effective | effective against Staphylococcus aureus [4]: effective | effective against Aspergillus brasiliensis [5]: effective | effective against Pseudomonas aeruginosa [6]: effective | effective against Klebsiella pneumoniae [7]: effective

Polyaminopropylbiguanide [PAPB]
fungicidal [8]: fungicidal | bactericidal concentration [9]: 10 mg/1
